In US20250327046A1, “ROLE OF POLYPHOSPHATES IN NEUROLOGICAL DISORDERS” (UNIVERSITY OF MASSACHUSETTS, priority 2021, published 2025):

Tested on: mutSOD1 mice
Assay: Survival of mutSOD1 mice (mouse model of ALS)
Assay type: in vivo
Details: FIG. 10B, polyP neutralizing cationic polyamine
Description: Hemizygous transgenic mice carrying mutant human SOD1^G93A (high copy number; B6SJL; Cat. #002726), wild-type human SOD1^WT (B6SJL; Cat. #002297) and TARDBP^A315T (C57BL/6J; Cat. #010700) transgenes were obtained from Jackson Laboratories (Bar Harbor, Maine, USA). Hemizygous transgenic mice (background B6SJLF/J) carrying C9ORF72 hexanucleotide repeats (˜500) in intron were generated by Robert Brown (Peters et al., 2015). All mice were maintained and bred at the animal facility of Universidad Andres Bello. The presence of the human SOD1transgene, the human TARDBP transgene and the human C9ORF72 transgene were validated by polymerase chain reaction as previously described. Transgenic males were crossed with WT females (B6SJL or C57BL/6J) from the corresponding background; these non-transgenic littermates (NTg) were used as internal controls for all experiments. The SOD1^G93A (mutSOD1) mice, but not the hSOD1WT (wtSOD1) mice, develop signs of neuromuscular deficits (tremor of the legs and loss of extension reflex of the hind paws) starting at 3 months of age and have an average lifespan of 133-147 days. […]
In this Example, polyP neutralizing molecules including a dendrimer (e.g., G3-PAMAM-NH2) and a cationic polyamine (e.g., spermidine) were evaluated as potential therapies for neurological disorders using a mouse model of ALS. […]

NCCCCNCCCN [spermidine]
survival of mutSOD1 mice (in words): prolonged survival
